Source: ChEMBL document CHEMBL2074125 (Drug Metabol Pharmacokin, 2002)

Experiments:
[1] = target: T1, Solute carrier family 22 member 6 (Rattus norvegicus, UniProt O35956); assay: TP_TRANSPORTER: inhibition of PAH uptake in Xenopus laevis oocytes; type: functional, cell-based, Oocyte
T1 sequence (O35956 whole entry): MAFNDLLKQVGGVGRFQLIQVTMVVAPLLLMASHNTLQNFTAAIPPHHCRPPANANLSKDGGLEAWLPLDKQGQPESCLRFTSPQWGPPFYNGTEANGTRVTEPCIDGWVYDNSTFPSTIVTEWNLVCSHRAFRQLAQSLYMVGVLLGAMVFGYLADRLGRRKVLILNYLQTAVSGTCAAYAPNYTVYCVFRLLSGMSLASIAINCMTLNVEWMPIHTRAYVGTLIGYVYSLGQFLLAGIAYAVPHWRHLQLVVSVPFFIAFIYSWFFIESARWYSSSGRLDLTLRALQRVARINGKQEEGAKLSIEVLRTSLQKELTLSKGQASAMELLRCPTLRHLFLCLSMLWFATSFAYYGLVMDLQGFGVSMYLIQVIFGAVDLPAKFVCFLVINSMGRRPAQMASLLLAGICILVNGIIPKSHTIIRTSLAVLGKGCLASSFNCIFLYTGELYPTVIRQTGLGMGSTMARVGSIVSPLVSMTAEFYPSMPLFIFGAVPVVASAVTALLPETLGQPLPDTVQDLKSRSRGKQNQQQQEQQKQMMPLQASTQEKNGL

[2] = target: T1, Solute carrier family 22 member 6; assay: TP_TRANSPORTER: uptake in Xenopus laevis oocytes; type: functional, cell-based; conditions: oocyte

Structure (SMILES) | IC50 [1] | Activity [2]
CN(C)CCn1nnnc1SCC1=C(C(=O)O)N2C(=O)[C@@H](NC(=O)Cc3csc(N)n3)[C@H]2SC1 [CEFOTIAM] | 718 µM | substrate [+]
CC1=C(C(=O)O)N2C(=O)[C@@H](NC(=O)[C@H](N)c3ccccc3)[C@H]2SC1 [CEPHALEXIN ANHYDROUS] | – | substrate [+]
